Measurements: patent US12163156B2, “Cell induction method” (INSTITUTE OF ZOOLOGY, CHINESE ACADEMY OF SCIENCES, priority 2018, dated 2024)

What was measured:
[1] = tested on: mouse adult primary hepatocytes; assay: In vitro amplification of mouse adult primary hepatocytes (Alb-GFP)
Source text: Alb-Cre mice are introduced from BRL Medicine, Cre recombinase is only expressed in mature hepatocytes expressing albumin; Rosa26/mTmG mice are introduced from Charles River, and a red and green fluorescence reporter system is incorporated into the Rosa26 locus of this kind of mouse; normally a tomato red fluorescent protein is expressed in the cells, while in the case of Cre recombination it is changed to express a green fluorescent protein (GFP). Alb-Cre adult mice are hybridizedwith Rosa26/mTmG mice to obtain offspring Alb-Cre×Rosa26/mTmG mice, and mature hepatocytes of the offspring are labeled green, and other tissue cells present the red fluorescent.
Alb-Cre×Rosa26/mTmG adult mice are sacrificed by cervical dislocation, taking out the hepatic lobes, cutting into small pieces, blowing and washing repeatedly with 100 volumes of pre-cooled PBS to remove the blood cells until the washing solution is not red; adding 3-5 volumes of collagenase IV (ThermoFisher, 17104019, preheated at 37° C.) to digest in incubator at 37° C. for 30-40 min, and blowing 2-3 times during the digestion, then centrifuging and removing the supernatant. […] The mouse hepatocyte medium comprises: DMEM/F12 (gibco, 10565018), adding N2 additive (100×, Gibco, 17502048), B27 additive (50×, Gibco, 17504044), 5% bovine serum albumin (1000×, Sigma, A8022), β-mercaptoethanol (1000×, Gibco, 21985023), GlutaMAX (200×, Gibco, 35050-061), non-essential amino acids (100×, Gibco, 11140-050), 1 μg/mL insulin (Roche, 11376497001), hepatocyte growth factor (10 ng/mL, R&D, 294-HG-025), transforming growth factor β inhibitor A83-01 (5 μm, stemgent, 04-0014), glycogen synthase kinase 3β inhibitor Chir99021 (6 μM, stemgent, 04-0004-10), macrophage stimulating protein 1 and 2 inhibitor XMU-MP-1 (2-5 μM, MCE, HY-100526) fibroblast growth factor 4 (10 ng/mL, R&D, 5846-f4-025), double antibiotics.
Without addition of Myosin II inhibitor (−)-Blebbistatin or (S)-(−)-Blebbistatin O-Benzoate, an equal volume of DMSO is added as a control, and the cells are respectively subcultured 3 times (P3), 5 times (P5), and seven times (P7).

ICR female mice = assay: In vivo experiment: ventral fat content after injection into the ventral side of mice; design: species or system mouse; settings: 0.5 mg/kg injected into the ventral side once a day; for ventral fat content: 19 days, drug stopped for 32 days, vs DMSO group
Procedure: In vivo experiment: the same batch of 6-8 week-old ICR female mice are selected and randomly divided into two groups, 5 in each group. As to one group, small molecule (−)-Blebbistatin or (S)-(−)-Blebbistatin O-Benzoate (0.5 mg/kg, dissolved in 10% DMSO+2% Tween 80+normal saline) is injected into the ventral side of the mice; as to the other group, the same amount of DMSO as the small molecule group is injected in the same way as the experimental group. The injection is performed once a day, 19 days after the injection, and the drug is stopped for 32 days. The mice are sacrificed by cervical dislocation, and the ventral fat content is observed.

adult hepatocytes = assay: Small molecule amplification of adult hepatocytes; type: cell-based, human; settings: for number of cells after 6 days of culturing: control group 1.59×10^4
Procedure: (1) The method for coating the plate is as described above.
(2) Resuscitation and culture of adult hepatocytes. Adult hepatocytes (M00995-P […] human, Bioreclamation IVT) are taken out from a liquid nitrogen tank, then quickly placing in a 37° C. water bath, after thawing the cells are added to 5 mL of 37° C. pre-heated hepatocyte inoculation medium (InVitroGRO CP Medium), after counting the cells are inoculated in a 24-well plate at the density of 9×10^4/well, 2-4 h after hepatocyte adherence, aspirating and abandoning the hepatocyte inoculation medium, and respectively adding hepatocyte culture control medium, 10 μm small molecule medium, and 20 μm small molecule medium. The media are changed every 2 days. The number of cells is estimated from the photograph on day 2. After 4 days, the cells of the 20 μm small molecule medium group are changed to culture in 10 μm small molecule medium. The cells are counted after co-culturing for 6 days. A portion of the cells are taken for RNA extraction to detect the expression of human hepatocyte-specific genes.
(3) Passage of adult hepatocytes. 4.7×10^4 of the hepatocytes cultured in the above-mentioned control group, and 8×10^4 of the hepatocytes cultured 10 μm small-molecule medium are respectively re-inoculated into the 24-well plates coated with rat tail tendon collagen, and the media are changed every two days. After 6 days, photos are taken to record cell growth.

[2] = tested on: human embryonic hepatocytes; assay: In vitro amplification of human embryonic hepatocytes; type: cell-based; settings: for cells amplified (multiple): 12 days subculturing (3 generations in total)
Procedure: (1) Coating the plate. The cell culture plate is coated with rat tail tendon collagen (Thermo scientific, A1048301, 3 mg/mL) at a concentration of […]. Taking a 24-well plate as an example, the bottom area of each hole is 1.9 cm^2, and […] is needed per well (about 3.2 μl); 3.2 μl of rat tail tendon collagen is dissolved in 500 μl of 20 mM glacial acetic acid, adding to the well to incubate in cell culture incubator at 37° C. for 1 h, and after aspirating and abandoning the solution, washing with PBS for 3 times.
(2) Resuscitation of human embryonic hepatocytes. Human embryonic hepatocytes are taken out from liquid nitrogen tanks (freezing date: Jan. 15, 2014; freezing medium: cell banker 2; the number of frozen cells: 2×10^7/tube), quickly placing in a 37° C. water bath, immediately after thawing the cells are sucked into a 15 mL centrifuge tube containing 5 mL of hepatocyte medium (control group), then centrifuging at 50 g, 4° C. for 5 min. The supernatant is discarded, then the cells are resuspended in 500 μl of hepatocyte medium with the number of 1.16×10^6 cells, and the cell resuscitation rate is 5.8%.
(3) Seeding the human embryonic hepatocytes. […] After hepatocyte medium containing 10 μM small molecule (−)-Blebbistatin, and hepatocyte medium containing 20 μM small molecule (−)-Blebbistatin hepatocyte medium are respectively seeded 24 h, for each group the digested cells from 3 wells are counted to calculate the cell attachment rate. After seeding for 72 h, for each group 3 wells of cells are digested and counted. […] A portion of the cells per well (⅖ of the cells counted) are taken for RNA extraction to detect the expression of human hepatocyte-associated genes.
(4) The first passage of human embryonic hepatocytes. […] A portion of the cells per well (⅖ of the cells counted) are taken for RNA extraction to detect the expression of human hepatocyte-associated genes.
(5) The second passage of human embryonic hepatocytes. […] The medium is changed every 2 days, and after continuing to culture for 144 h (6 days), the cells are digested and counted. […]

[3] = tested on: Mouse embryonic fibroblasts; assay: Transdifferentiation of mouse embryonic fibroblasts into adipocytes, oil red O staining; type: cell-based; settings: 10 μM added to the original adipocyte induction medium (Myosin inhibitor + BMP4); P<0.001
Procedure: Taking a 12-well plate as an example (coming, 3335), for each well, preparing 20 μg/ml Matrigel solution (BD, 354277) with 1×DMEM and coating for 12 hours; then the coating solution is removed, washing with 1×PBS. Mouse embryonic fibroblasts (C57, prepared by E13.5) or adult foreskin fibroblasts (HFF20y, Beijing Stem Cell Bank) are uniformly seeded in each well, 1×10^4 cells per well; incubating in basic medium (high glucose DMEM (Gibco, C12430500BT), double antibiotics) added with 10% fetal bovine serum (Gibco, 16000-044) for 24 hours. The medium is removed, then washing with PBS. […] The identification of adipocytes is performed by oil red staining of cells, oil red O staining solution (cell-specific, Solarbio, […]) is used, and the details are as follows: removing the medium, adding ORO Fixative to fix for 10-15 min, removing the ORO Fixative, and placing in flowing air for 10-15 min. At this time, ORO Stain is prepared in a ratio of ORO Stain A:ORO Stain B=3:2, standing for 10 min after mixing, then adding to the well; the staining solution is removed after dip dyeing for 15 min, adding 60% isopropanol to rinse for 20-30 s, and washing with distilled water for 3 times, then taking photos under an optical microscope. The neutral fats are orange-red or orange-colored, and the phospholipids are pink.

CYP1A2 gene = CYP1A2 gene induction with omeprazole in small molecule-amplified adult hepatocytes; type: cell-based, human; settings: 50 μm omeprazole in 10 μm small molecule medium, 48 hours, vs DMSO
Procedure: (4) 10CYP1A2 adult hepatocytes amplified in 10 μm small medium. 3×10^5 hepatocytes are induced and inoculated in a 24-well plate coated with rat tail tendon collagen, after culturing in a 10 μm small molecule medium for 24 h, then replacing the medium with a 10 μm small molecule medium with 50 μm omeprazole, the control group is a 10 μm small molecule medium containing DMSO, and 48 hours later the cells are collected to detect the expression of the CYP1A2 gene.

SMILES: Cc1ccc2c(c1)C(=O)C1(O)CCN(c3ccccc3)C1=N2 (single isomer, unassigned; (-)) [(−)-Blebbistatin]
- hepatocyte clusters with Alb expression ([1]; 5 μM in mouse hepatocyte medium, fibronectin-coated dish, one week): green hepatocyte clusters with Alb expression are observed
- subculturing in vitro ([1]; mouse hepatocytes in medium with Myosin inhibitor): at least 20 generations
- long-term amplification of AlB-GFP-positive hepatocytes ([1]; vs DMSO control, subcultured P3, P5, P7): significantly promotes
- ventral fat content (ICR female mice): significantly increase
- ventral fat content (ICR female mice; listed as Ble): significant increase
- number of cells after 6 days of culturing (adult hepatocytes; 10 μm group): 6.47×10^4 (SD=1.24)
- subculture of human hepatocytes (adult hepatocytes; 10 μm small molecule medium, control medium cannot): can make human hepatocytes subculture
- number of cells after 6 days of culturing (adult hepatocytes; # group: 20 μm for 4 days then 10 μm for 2 days): 9.47×10^4 (SD=0.98)
- expression of human hepatocyte specific genes albumin, AFP, CYP1A2, CYP3A4 (adult hepatocytes; adult hepatocytes amplified with small molecules): still express
- expression of the proliferating cell nuclear antigen (PCNA) gene (adult hepatocytes; small molecule group vs control group): significantly higher
- amplification effect on adult hepatocytes (cell number day 6 / day 2) (adult hepatocytes; small molecule groups vs control): significant amplification effect
- human hepatocyte-specific genes albumin and alpha-fetoprotein expression ([2]; 10 μM and 20 μM small molecule media, 12 days subculturing, real-time quantitative PCR): still expressed
- cells amplified (multiple) ([2]; 10 μM small molecule medium): about 22.1 times
- cells amplified (multiple) ([2]; 20 μM small molecule medium): about 13.0 times

SMILES: Cc1ccc2c(c1)C(=O)[C@]1(OC(=O)c3ccccc3)CCN(c3ccccc3)C1=N2 [(S)-(−)-Blebbistatin O-Benzoate]
- passaged in vitro ([1]; treated mouse hepatocytes): more than 20 times
- ventral fat content increase (ICR female mice; without optimization): about 50%

SMILES: Cc1cccc(-c2nn(C(=S)Nc3ccccc3)cc2-c2ccnc3ccccc23)n1 [A83-01]
- adipocyte induction efficiency [3]: up to 20%

SMILES: NC(=O)c1ccc(-c2nc(-c3ccc4c(c3)OCO4)c(-c3ccccn3)[nH]2)cc1 [SB431542]
- adipocyte induction efficiency [3]: 18%

SMILES: COc1ccc2[nH]c([S+]([O-])Cc3ncc(C)c(OC)c3C)nc2c1 (stereo not shown) [omeprazole]
- expression of CYP1A2 gene (CYP1A2 gene): can be increased
